From ChEMBL document CHEMBL1151717, “In vivo active aldosterone synthase inhibitors with improved selectivity: lead optimization providing a series of pyridine substituted 3,4-dihydro-1H-quinolin-2-one derivatives” (J Med Chem, 2008)

Key:
[1] = biological target: T1, Cytochrome P450 11B2, mitochondrial (Homo sapiens, UniProt P19099); test: Inhibition of human CYP11B2 expressed in hamster V79 MZh cells at 500 nM; format: cell-based; conditions: V79MZh
T1 sequence (P19099 whole entry): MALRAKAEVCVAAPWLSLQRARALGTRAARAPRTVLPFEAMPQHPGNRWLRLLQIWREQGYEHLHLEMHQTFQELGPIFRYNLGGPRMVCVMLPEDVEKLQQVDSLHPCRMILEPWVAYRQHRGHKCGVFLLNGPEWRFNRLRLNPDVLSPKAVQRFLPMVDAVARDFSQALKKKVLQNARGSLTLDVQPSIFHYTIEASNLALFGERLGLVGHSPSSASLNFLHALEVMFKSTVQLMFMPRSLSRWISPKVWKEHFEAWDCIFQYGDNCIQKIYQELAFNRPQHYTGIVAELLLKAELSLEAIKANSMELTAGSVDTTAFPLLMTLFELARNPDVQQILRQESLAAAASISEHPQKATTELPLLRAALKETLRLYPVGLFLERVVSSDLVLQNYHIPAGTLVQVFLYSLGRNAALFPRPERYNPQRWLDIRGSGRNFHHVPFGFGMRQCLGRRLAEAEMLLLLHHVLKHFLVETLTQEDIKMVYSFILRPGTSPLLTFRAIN

[2] = Terminal half life in Wistar rat at 25 mg/kg, po; format: ADME, organism-based; design: dose 25 mg/kg, route oral; conditions: in vivo, read-out: beta t1/2 (converted)
[3] = Tmax in Wistar rat at 25 mg/kg, po; format: ADME, organism-based; design: dose 25 mg/kg, route oral; conditions: in vivo
[4] = Cmax in Wistar rat at 25 mg/kg, po; format: ADME, organism-based; design: dose 25 mg/kg, route oral; conditions: in vivo
[5] = AUC (0 to infinity) in Wistar rat at 25 mg/kg, po; format: ADME, organism-based; design: time infinity, dose 25 mg/kg, route oral; conditions: plasma
[6] = system: Rattus norvegicus; test: Plasma concentration in Wistar rat at 25 mg/kg, po after 0.5 to 8 hrs; format: ADME, organism-based; design: dose 25 mg/kg, route oral; conditions: in vivo
[7] = biological target: T2, Cytochrome P450 11B1, mitochondrial (Homo sapiens, UniProt P15538)
T2 sequence (P15538 whole entry): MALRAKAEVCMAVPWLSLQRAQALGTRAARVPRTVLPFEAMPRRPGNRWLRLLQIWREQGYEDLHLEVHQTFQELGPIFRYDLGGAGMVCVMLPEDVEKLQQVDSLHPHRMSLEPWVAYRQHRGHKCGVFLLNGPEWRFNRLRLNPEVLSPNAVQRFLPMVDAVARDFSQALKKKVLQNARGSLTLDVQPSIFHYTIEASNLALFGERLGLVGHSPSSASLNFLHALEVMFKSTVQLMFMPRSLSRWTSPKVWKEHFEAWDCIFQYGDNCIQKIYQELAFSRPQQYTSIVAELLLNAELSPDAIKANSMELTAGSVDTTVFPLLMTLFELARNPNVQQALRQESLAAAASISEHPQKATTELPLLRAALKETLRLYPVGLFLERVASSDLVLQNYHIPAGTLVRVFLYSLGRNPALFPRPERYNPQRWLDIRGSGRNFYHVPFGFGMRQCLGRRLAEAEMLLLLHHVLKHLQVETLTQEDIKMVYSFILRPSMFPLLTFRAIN

[8] = species: Homo sapiens; test: Selectivity ratio, IC50 for human CYP11B1 to IC50 for human CYP11B2
[9] = system: Rattus norvegicus; test: Reduction of ACTH-induced aldosterone level in Wistar rat plasma at 20 mg/kg, iv administered 16 hrs after ACTH challenge after 0.5 to 3 hrs; design: scale not given: the % may be the effect or the level left
[10] = Protein binding in rat plasma at 3 uM after 1 hr; format: ADME, cell-free; conditions: read-out: PPB (converted)
[11] = Protein binding in human plasma at 3 uM after 1 hr; format: ADME, cell-free; conditions: read-out: PPB (converted)
[12] = Terminal half life in Wistar rat at 5 mg/kg, po by cassette dosing; format: ADME, organism-based; design: dose 5 mg/kg, route oral; conditions: in vivo, read-out: beta t1/2 (converted)
[13] = Tmax in Wistar rat at 5 mg/kg, po by cassette dosing; format: ADME, organism-based; design: dose 5 mg/kg, route oral; conditions: in vivo
[14] = Cmax in Wistar rat at 5 mg/kg, po by cassette dosing; format: ADME, organism-based; design: dose 5 mg/kg, route oral; conditions: in vivo
[15] = AUC (0 to infinity) in Wistar rat at 5 mg/kg, po by cassette dosing; format: ADME, organism-based; design: time infinity, dose 5 mg/kg, route oral; conditions: plasma
[16] = system: U-937; test: Cytotoxicity against human U937 cells assessed as reduction of survival fraction at >100 uM by fluorimetric alamar blue assay; format: cell-based

SMILES | inhibition at 0.5 µM [1] [%] | half-life [2] [h] | Tmax [3] [h] | Cmax [4] [ng/mL] | AUC(0-inf) [5] [ng·h/mL] | Cp [6] [ng/mL] | IC50 [7] [µM] | Ratio IC50 [8] | Activity [9] [%] | fraction unbound at 1 h, 3 µM [10] | fraction unbound at 1 h, 3 µM [11] | half-life [12] [h] | Tmax [13] [h] | Cmax [14] [ng/mL] | AUC(0-inf) [15] [ng·h/mL] | Activity [16]
O=C1CCc2cc(-c3cncc4ccccc34)ccc2N1 | 94 | 2.9 | 2 | 134 | 1660 | 90 | 0.033 | 187 | 36 |  |  |  |  |  |  | 
O=C1CCc2cc(-c3cccnc3)ccc2C1 | 97 |  |  |  |  |  | 3.96 | 496 |  | 0.75 | 0.76 | 3.5 | 4 | 104 | 727 | Toxic
COc1cncc(-c2ccc3c(c2)CCC(=O)C3)c1 | 94 |  |  |  |  |  | 0.191 | 106 |  |  |  | 3.9 | 4 | 35 | 212 | 
